Like-named read-outs stand apart in the source and are kept apart here.
Test system: primary rat mixed cortical cells
Experiment: In vitro myelination assay (MBP positive myelin strands, fold myelin pixels above background)
Type: cell-based
Settings: Rattus norvegicus; for fold induction at 1 µM: 1.0 μM compound; for fold induction at 10 µM: 10.0 μM compound
Method in brief: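 Mixed cortical culture, P1 rat, 87,500-95,000 cells/well; compound present from seeding, refreshed days 6 and 10; 14 d, 37 °C, 5% CO2. Day 14: PFA fix, anti-MBP + Hoechst. Read-out: fold MBP myelin pixels over untreated, tested at 1.0 and 10.0 μM.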

[1] = relative to baseline of no added compound, read-out: Fold myelin pixels above background, 1.0 μM
[2] = relative to baseline of no added compound, read-out: Fold myelin pixels above background, 10.0 μM
[3] = relative to baseline of no added compound, read-out: Fold myelin pixels above background
[4] = read-out: Fold myelin pixels above background relative to baseline of no added compound

| SMILES | fold induction at 1 µM [1] | fold induction at 10 µM [2] | fold induction at 1 µM [3] | fold induction at 10 µM [3] | fold induction at 1 µM [4] | fold induction at 10 µM [4] |
| --- | --- | --- | --- | --- | --- | --- |
| Cc1cc(Nc2ncn(-c3cccc(F)c3)n2)cc(C2COC2)c1 [Compound 147, 1-(3-fluorophenyl)-N-[3-methyl-5-(oxetan-3-yl)phenyl]-1,2,4-triazol-3-amine] | 1000 to 10000 | 10 to 100 |  |  |  |  |
| Cc1cc(Nc2ncn(-c3cc(C)cc(F)c3)n2)cc(N2CCN(C)CC2)c1 [Compound 424, 1-(3-fluoro-5-methyl-phenyl)-N-[3-methyl-5-(4-methylpiperazin-1-yl)phenyl]-1,2,4-triazol-3-amine] |  |  | 100 to 1000 | ≤ 1 |  |  |
| COCCCN1CCN(c2cc(C)cc(Nc3ncn(-c4cc(F)cc(F)c4)n3)c2)CC1 [Compound 850, 1-(3,5-difluorophenyl)-N-[3-[4-(3-methoxypropyl)piperazin-1-yl]-5-methyl-phenyl]-1,2,4-triazol-3-amine] |  |  |  |  | 10 to 100 | ≤ 1 |
| Cc1cc(Nc2ncn(-c3ccccc3)n2)cc(N2CCN(CC3(C)COC3)CC2)c1 [Compound 431, N-[3-methyl-5-[4-[(3-methyloxetan-3-yl)methyl]piperazin-1-yl]phenyl]-1-phenyl-1,2,4-triazol-3-amine] |  |  | 1 to 10 | ≤ 1 |  |  |
| Fc1cc(Nc2ncn(-c3cc(F)cc(F)c3)n2)cc(C2CCN(C3COC3)C2)c1 (stereo not drawn) [Compound 268, 1-(3,5-difluorophenyl)-N-[3-fluoro-5-[1-(oxetan-3-yl)pyrrolidin-3-yl]phenyl]-1,2,4-triazol-3-amine] | 100 to 1000 | 1000 to 10000 |  |  |  |  |
| COc1nccc(-n2cnc(Nc3cc(C)cc(N4CCN(C5COC5)CC4)c3)n2)n1 [Compound 30, 1-(2-methoxypyrimidin-4-yl)-N-[3-methyl-5-[4-(oxetan-3-yl)piperazin-1-yl]phenyl]-1,2,4-triazol-3-amine] | ≤ 1 | 100 to 1000 |  |  |  |  |
| Cc1cc(Nc2ncn(-c3cccnc3)n2)cc(N2CCN(C)CC2)c1 [Compound 297, N-[3-methyl-5-(4-methylpiperazin-1-yl)phenyl]-1-(3-pyridyl)-1,2,4-triazol-3-amine] | 10 to 100 | 10 to 100 |  |  |  |  |
| Cc1cc(Nc2ncn(-c3cccc(C(F)(F)F)c3)n2)nc(NC2CCOC2)c1 (stereo not drawn) [Compound 600, 4-methyl-N2-tetrahydrofuran-3-yl-N6-[1-[3-(trifluoromethyl)phenyl]-1,2,4-triazol-3-yl]pyridine-2,6-diamine] |  |  | 1 to 10 | 10 to 100 |  |  |
| Cc1cc(NCCN2CCOCC2)cc(Nc2ncn(-c3cc(F)cc(F)c3)n2)c1 [Compound 858, N1-[1-(3,5-difluorophenyl)-1,2,4-triazol-3-yl]-5-methyl-N3-(2-morpholinoethyl)benzene-1,3-diamine] |  |  |  |  | 10 to 100 | ≤ 1 |
| Cc1cc(N2CCN(C3COC3)CC2)cc(Nc2ncn(-c3cnccn3)n2)c1C [Compound 470, N-[2,3-dimethyl-5-[4-(oxetan-3-yl)piperazin-1-yl]phenyl]-1-pyrazin-2-yl-1,2,4-triazol-3-amine] |  |  | 10 to 100 | 100 to 1000 |  |  |
| Cc1cc(Nc2ncn(-c3cc(F)cc(F)c3)n2)cc(NC2(C(=O)N(C)C)CCC2)c1 [Compound 887, 1-[3-[[1-(3,5-difluorophenyl)-1,2,4-triazol-3-yl]amino]-5-methyl-anilino]-N,N-dimethyl-cyclobutanecarboxamide] |  |  |  |  | 10 to 100 | 10 to 100 |
| Cc1cc(Nc2ncn(-c3ccccc3)n2)cc(N2CCN(C3CCCOC3)CC2)c1 (stereo not drawn) [Compound 172, N-[3-methyl-5-(4-tetrahydropyran-3-ylpiperazin-1-yl)phenyl]-1-phenyl-1,2,4-triazol-3-amine] | 1000 to 10000 | 1 to 10 |  |  |  |  |
| Cc1cc(Nc2ncn(-c3cc(F)cc(F)c3)n2)cc(N2CCN(CCO)CC2)c1 [Compound 1036, 2-[4-[3-[[1-(3,5-difluorophenyl)-1,2,4-triazol-3-yl]amino]-5-methyl-phenyl]piperazin-1-yl]ethanol] |  |  |  |  | ≤ 1 | ≤ 1 |
| CC(=O)OCC(C)(CO)N1CCN(c2cc(C)cc(Nc3ncn(-c4cc(F)cc(F)c4)n3)c2)CC1 (stereo not drawn) [Compound 534, [2-[4-[3-[[1-(3,5-difluorophenyl)-1,2,4-triazol-3-yl]amino]-5-methyl-phenyl]piperazin-1-yl]-3-hydroxy-2-methyl-propyl] acetate] |  |  | 1 to 10 | ≤ 1 |  |  |
| Fc1ccc(-n2cnc(Nc3cc(C4CC4)nc(N4CCOCC4)c3)n2)cc1F [Compound 88, 2-cyclopropyl-N-[1-(3,4-difluorophenyl)-1,2,4-triazol-3-yl]-6-morpholino-pyridin-4-amine] | 1000 to 10000 | 1000 to 10000 |  |  |  |  |
| Cc1cc(Nc2ncn(-c3cc(F)cc(F)c3)n2)cc(NC2CCN(C3COC3)C2)c1 (stereo not drawn) [Compound 472, N3-[1-(3,5-difluorophenyl)-1,2,4-triazol-3-yl]-5-methyl-N1-[1-(oxetan-3-yl)pyrrolidin-3-yl]benzene-1,3-diamine] |  |  | 100 to 1000 | ≤ 1 |  |  |
| Cc1cc(Nc2ncn(-c3cc(F)cc(F)c3)n2)cc(N2CCN(C(=O)N3CCOCC3)CC2)c1 [Compound 582, [4-[3-[[1-(3,5-difluorophenyl)-1,2,4-triazol-3-yl]amino]-5-methyl-phenyl]piperazin-1-yl]-morpholino-methanone] |  |  | 1 to 10 | 10 to 100 |  |  |
| CCN1CCN(C2CCN(c3cc(C)cc(Nc4ncn(-c5cc(F)cc(F)c5)n4)c3)CC2)CC1 [Compound 1025, 1-(3,5-difluorophenyl)-N-[3-[4-(4-ethylpiperazin-1-yl)-1-piperidyl]-5-methyl-phenyl]-1,2,4-triazol-3-amine] |  |  |  |  | 1 to 10 | 10 to 100 |
| [2H]C1([2H])N(C)C([2H])([2H])C([2H])([2H])N(c2cc(C)cc(Nc3ncn(-c4ccccc4)n3)c2)C1([2H])[2H] [Compound 1111, N-[3-methyl-5-(2,2,3,3,5,5,6,6-octadeuterio-4-methyl-piperazin-1-yl)phenyl]-1-phenyl-1,2,4-triazol-3-amine] |  |  |  |  | 100 to 1000 | ≤ 1 |
| Cc1cc(Nc2ncn(-c3cc(F)cc(F)c3)n2)cc(N2CC(N3CCOC4(CC4)C3)C2)c1 [Compound 586, 1-(3,5-difluorophenyl)-N-[3-methyl-5-[3-(4-oxa-7-azaspiro[2.5]octan-7-yl)azetidin-1-yl]phenyl]-1,2,4-triazol-3-amine] |  |  | 10 to 100 | 10 to 100 |  |  |
| Clc1cc(Nc2ncn(-c3ccccc3)n2)cc(N2CCCC2)c1 [Compound 380, N-(3-chloro-5-pyrrolidin-1-yl-phenyl)-1-phenyl-1,2,4-triazol-3-amine] | 100 to 1000 | 10 to 100 |  |  |  |  |
| Cc1cc(Nc2ncn(-c3cc(F)cc(F)c3)n2)cc(N2CCN(CC3COCCO3)CC2)c1 (stereo not drawn) [Compound 949, 1-(3,5-difluorophenyl)-N-[3-[4-(1,4-dioxan-2-ylmethyl)piperazin-1-yl]-5-methyl-phenyl]-1,2,4-triazol-3-amine] |  |  |  |  | 10 to 100 | 10 to 100 |
| Cc1cc(Nc2ncn(-c3ccccc3)n2)cc(Nc2ncco2)c1 [Compound 838, 5-methyl-N1-oxazol-2-yl-N3-(1-phenyl-1,2,4-triazol-3-yl)benzene-1,3-diamine] |  |  |  |  | ≤ 1 | ≤ 1 |
| Cc1cc(Nc2ncn(-c3cc(F)cc(F)c3)n2)nc(N2CCN(C(C)(C)C)CC2)c1 [Compound 702, 6-(4-tert-butylpiperazin-1-yl)-N-[1-(3,5-difluorophenyl)-1,2,4-triazol-3-yl]-4-methyl-pyridin-2-amine] |  |  | 10 to 100 | 10 to 100 |  |  |
| Cc1cc(Nc2ncn(-c3ccccc3)n2)cc(C2CCCNC2)c1 (stereo not drawn) [Compound 316, N-[3-methyl-5-(3-piperidyl)phenyl]-1-phenyl-1,2,4-triazol-3-amine] | 100 to 1000 | ≤ 1 |  |  |  |  |
| Cc1cc(Nc2ncn(-c3cc(F)cc(F)c3)n2)c(F)c(N2CC(N3CCOCC3)C2)c1 [Compound 790, 1-(3,5-difluorophenyl)-N-[2-fluoro-5-methyl-3-(3-morpholinoazetidin-1-yl)phenyl]-1,2,4-triazol-3-amine] |  |  |  |  | 10 to 100 | 10 to 100 |
| COc1cc(F)cc(-n2cnc(Nc3cc(C)cc(N4CCN(C5COC5)CC4)c3)n2)c1 [Compound 56, 1-(3-fluoro-5-methoxy-phenyl)-N-[3-methyl-5-[4-(oxetan-3-yl)piperazin-1-yl]phenyl]-1,2,4-triazol-3-amine] | 100 to 1000 | 100 to 1000 |  |  |  |  |
| Cc1cc(Nc2ncn(-c3ccccc3)n2)cc(N2CC3(COC3)C2)c1 [Compound 7, N-[3-methyl-5-(6-oxa-2-azaspiro[3.3]heptan-2-yl)phenyl]-1-phenyl-1,2,4-triazol-3-amine] | 1000 to 10000 | 1000 to 10000 |  |  |  |  |
| COCC1CCN(c2cc(Cl)cc(Nc3ncn(-c4ccccc4)n3)c2)CC1 [Compound 246, N-[3-chloro-5-[4-(methoxymethyl)-1-piperidyl]phenyl]-1-phenyl-1,2,4-triazol-3-amine] | 10 to 100 | 100 to 1000 |  |  |  |  |
| Cc1cc(Nc2ncn(-c3cc(F)cc(F)c3)n2)cc(N2CC(C3COC3)C2)c1 [Compound 506, 1-(3,5-difluorophenyl)-N-[3-methyl-5-[3-(oxetan-3-yl)azetidin-1-yl]phenyl]-1,2,4-triazol-3-amine] |  |  | 100 to 1000 | 1 to 10 |  |  |
